Measurements from patent US8492347B2, “Peptide for induction of immune tolerance as treatment for systemic lupus erythematosus” (The Regents of the University of California, priority 2007, dated 2013).
Where no end group is shown, it is not given here. [ ]: non-standard residue; d: D form.

Assays:
Assay type in all cases: in vivo
BWF1 mice [1] = experiment: anti-DNA antibodies (ELISA) in mice fed peptide; conditions: 250 ug fed 5 days out of each 30 from age 10 weeks
Method: (§1) Anti-DNA antibodies were measured by ELISA and proteinuria by Azostix (see, e.g. Yang et al., J. I., 2003, 171: 2142-2153).
(§2) We also observed the clinical effects of feeding either D- or L-peptides at the low, medium and high doses of each. Because mRNA analysis of mesenteric lymph nodes provided evidence that high dose D-peptide would induce tolerance, we began new experiments to compare high dose (250 ug) feedings of D-peptide to the same dose of L-peptide. A control group was fed saline on the same schedule as the peptide feedings, which is daily for 5 days out of each 30 days. Each group contains 14 mice; treatment was begun at age 10 weeks. Observed effects on anti-DNA are as follows. […] Note that the saline control group is lower than the positive control anti-DNA, which is serum from BWF1 mice with heavy proteinuria and imminent death. Thus, the saline control has not reached the expected high level at this point but should do so in the next 2 months.

BWF1 mice [2] = experiment: cytokine and Foxp3 mRNA in mesenteric lymph nodes after peptide feeding; conditions: mesenteric lymph nodes one week after feeding
Method: Cytokine measurement in the supernatant of cultured spleen cells was done with BD OptEIA™ ELISA kits (BD Biosciences and Bio legends Inc., San Diego, Calif.) for IFNγ, IL-2, TGFβ and IL-10. Intracellular mRNA encoding IFNγ, IL-10, Foxp3 and TGFβ was analyzed by real-time RT PCR. GAPDH was used as a house-keeping gene for normalization.
Real-time PCR was analyzed according to art accepted protocols (see, e.g. Hahn et al., Ann NY Acad Sci 2005; 1051:433-41). Briefly, total RNA was isolated with TRIzol (Invitrogen Life Technologies, Carlsbad, Calif.) as per manufacturer's protocol. Reverse transcription used 50 ng of total RNA. The oligonucleotide sequences used for the primers and TaqMan probes are as follows; IFN-γ forward, 5′ TGA GAC AGA AGT TCT GGG CTTCT 3′ (SEQ ID NO: 9); reverse, 5′ CAAGAT GCA GTG TGT AGC GTTCA 3′ (SEQ ID NO: 10): probe, 6FAM TCC TGCGGCCTAGCTCTGAGA TAMRA (SEQ ID NO: 11). IL-10 forward, 5′ CAGCCGGGAAGACAATAACTG 3′ (SEQ ID NO: 12); reverse, 5′ CCGCAGCTCTAGGAGCATGT 3′ (SEQ ID NO: 13); probe 6FAM ACCCACTTCCCAGTCGGCCAGAG TAMRA. TGFβ forward, 5′ AAACGGAAGCGCATCGAA 3′ (SEQ ID NO: 14); reverse, 5′ […] 3′ (SEQ ID NO: 15), probe 6FAM […] TAMRA (SEQ ID NO: 16). Foxp3 forward, 5′[…] 3′ (SEQ ID NO: 17); reverse, 5′ […] 3′ (SEQ ID NO: 18); probe 6FAM […] TAMRA (SEQ ID NO: 19). The amplification primers were at 900 nM and the probe at 200 nM. A passive reference dye (ROX) provided an internal standard for normalization of FAM fluorescence, correcting for fluctuations due to volume changes. For relative quantitation, a standard curve was constructed for each primer and probe set, using total RNA. RNA was isolated from spleen cells of 10-13 week-old naïve or tolerized mice. Spleen cells from 2 to 3 mice in each group were pooled for each experimental group. For some experiments, CD4^+ and CD8^+ cells were isolated by positive selection using micro beads with Miltenyi AutoMACS as described above. A ribosomal RNA control primer and probe set (Applied Biosystems) were used for normalization purposes. […]

BWF1 mice [3] = experiment: proteinuria (Azostix) in mice fed peptide; conditions: 250 ug fed 5 days out of each 30 from age 10 weeks; for proteinuria vs saline: at 34 weeks
Method: as §1, §2
Observed effects on Proteinuria are as follows.

| Sequence | anti-DNA antibody levels vs saline (BWF1 mice [1]; at 24 weeks of age, not statistically significant) | anti-DNA antibody levels vs saline (BWF1 mice [1]; at 34 weeks, one-tailed t test, listed as D-peptide) | mRNA pattern: increase in Foxp3 and TGFb with decrease in IFNg (BWF1 mice [2]; high dose 250 ug fed, listed as D-peptide) | mean level of proteinuria (zero to 4+) (BWF1 mice [3]; at 24 weeks of age) | proteinuria vs saline (BWF1 mice [3]; listed as D-peptide) | anti-DNA antibody levels vs saline (BWF1 mice [1]; at 34 weeks, one-tailed t test, listed as L-peptide) | mRNA pattern: increase in Foxp3 and TGFb with decrease in IFNg (BWF1 mice [2]; high dose 250 ug fed, listed as L-peptide) | mRNA pattern: increase in Foxp3 and TGFb with decrease in IFNg (BWF1 mice [2]; middle dose 100 ug fed, listed as L-peptide) | proteinuria vs saline (BWF1 mice [3]; listed as L-peptide) |
| --- | --- | --- | --- | --- | --- | --- | --- | --- | --- |
| FIEWNKLRFRQGLEW ([dF][dI][dE][dW][dN][dK][dL][dR][dF][dR][dQ]G[dL][dE][dW]) [D-pCons] | trends to lower anti-DNA antibody levels | borderline (p=0.17 by one-tailed t test) | All desired features | no differences in mean level of proteinuria | lower in the D-peptide group (p=0.18) | – | – | – | – |
| FIEWNKLRFRQGLEW [L-pCons] | – | – | – | – | – | significantly lower than saline (p=0.03) | all desired features | all desired features | lower in the L-peptide group (p=0.01) |
